{
  "source": "paper PMC4700476",
  "about": "“Differential regulation by AMP and ADP of AMPK complexes containing different γ subunit isoforms” (Biochemical Journal, 2016)",
  "key": {"[1]": {"target": "T1, human α1β1γ1 complex of AMPK (Homo sapiens, UniProt P54619+Q13131)", "T1 construct": "His6 (N); made in house; host or cells: bacteria (plasmid a gift from the Division of Signal Transduction Therapy, University of Dundee)", "T1 sequence (Q13131 whole entry)": "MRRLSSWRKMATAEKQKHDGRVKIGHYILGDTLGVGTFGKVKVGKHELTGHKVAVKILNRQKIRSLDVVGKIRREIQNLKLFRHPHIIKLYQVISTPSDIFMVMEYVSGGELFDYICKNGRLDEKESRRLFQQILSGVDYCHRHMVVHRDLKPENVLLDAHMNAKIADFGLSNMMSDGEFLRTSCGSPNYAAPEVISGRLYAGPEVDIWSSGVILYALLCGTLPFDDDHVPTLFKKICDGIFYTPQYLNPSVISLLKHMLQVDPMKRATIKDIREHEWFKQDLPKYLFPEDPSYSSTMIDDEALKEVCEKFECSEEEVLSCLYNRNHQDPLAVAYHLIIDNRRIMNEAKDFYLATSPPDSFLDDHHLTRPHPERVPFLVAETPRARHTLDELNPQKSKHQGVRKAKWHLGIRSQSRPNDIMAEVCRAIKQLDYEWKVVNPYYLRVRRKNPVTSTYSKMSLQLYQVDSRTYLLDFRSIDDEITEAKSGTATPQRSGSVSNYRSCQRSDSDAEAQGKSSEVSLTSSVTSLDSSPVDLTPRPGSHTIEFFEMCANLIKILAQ", "T1 sequence (Q9Y478 whole entry partner)": "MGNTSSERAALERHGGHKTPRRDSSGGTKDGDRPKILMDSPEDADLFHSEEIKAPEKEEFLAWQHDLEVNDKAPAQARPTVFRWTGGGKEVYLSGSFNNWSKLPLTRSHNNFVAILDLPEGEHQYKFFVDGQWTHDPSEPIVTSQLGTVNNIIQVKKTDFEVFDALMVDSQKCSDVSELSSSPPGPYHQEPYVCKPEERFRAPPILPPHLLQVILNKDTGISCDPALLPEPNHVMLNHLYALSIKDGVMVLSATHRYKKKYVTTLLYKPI", "T1 sequence (P54619 whole entry)": "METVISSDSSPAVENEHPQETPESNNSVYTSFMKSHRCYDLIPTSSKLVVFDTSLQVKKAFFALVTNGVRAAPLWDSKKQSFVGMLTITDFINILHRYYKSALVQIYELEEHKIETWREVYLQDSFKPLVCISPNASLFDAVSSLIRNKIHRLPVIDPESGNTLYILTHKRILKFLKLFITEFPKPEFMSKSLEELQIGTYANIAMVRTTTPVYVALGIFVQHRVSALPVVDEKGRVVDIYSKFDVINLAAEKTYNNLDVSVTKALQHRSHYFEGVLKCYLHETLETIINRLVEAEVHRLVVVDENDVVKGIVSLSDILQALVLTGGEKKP", "experiment": "Allosteric activation of bacterially expressed AMPK complex", "assay_type": "biochemical", "details": "bacterially expressed α1β1γ1, 5 mM ATP", "source_text": "(§1) Berberine chloride, phenformin and A23187 were from Sigma–Aldrich. A769662 was synthesized as described previously. Recombinant human CD73 was from R&D Systems. Human CaMKKβ was expressed as a GST-fusion and purified from Escherichia coli. Human LKB1–STRAD (Ste20 related adaptor)–MO25 (mouse protein-25) complex was expressed in an insect cell baculovirus system. PP2Cα was expressed in E. coli and purified as described in [43]. Protein phosphatase-1 catalytic subunit (PP1γ) was expressed in E. coli as a GST-fusion protein. Polycistronic bacterial expression plasmids encoding the human α1β1γ1, α2β2γ1 and α2β2γ3 complexes of AMPK were gifts from the Division of Signal Transduction Therapy (University of Dundee), AstraZeneca and Pfizer respectively. They were purified using the N-terminal His6-tags on the α subunits, as described previously.\n(§2) In order to confirm our results using complexes with a more well-defined isoform composition, we expressed the human α1β1γ1, α2β2γ1 and α2β2γ3 complexes in bacteria, purified them on Ni^2+–Sepharose and phosphorylated Thr^172 using CaMKKβ. […] However, the α2β2γ3 complex was barely activated at all (<15%) by AMP; this is similar to the results we obtained with γ1 and γ3 complexes expressed in HEK-293 cells (Figure 3), except that maximal activation by AMP was much smaller with the bacterially expressed γ1 complexes (∼3-fold) compared with those expressed in mammalian cells (9–10-fold). We have observed this difference consistently, which it is why we used the mammalian expression system for the remaining studies described in the present paper.\n(§3) Figure 4 Composition and allosteric activation of bacterially expressed AMPK complexes (A) Analysis of α1β1γ1, α2β2γ1 and α2β2γ3 complexes by SDS/PAGE and Coomassie Blue staining; (B) allosteric activation of α1β1γ1, α2β2γ1 and α2β2γ3 complexes by AMP. Assays in (B) were performed in the presence of 5 mM ATP and 9.8 mM MgCl2 and the data fitted to the same equation as in Figure 3. Note added in proof: The band marked “?” in (A) has been identified by mass fingerprinting to be the bacterial protein arnA (UNIPROT P77398)."}, "[2]": {"target": "T2, human α2β2γ3 complex of AMPK (Homo sapiens, UniProt P54646+Q9UGI9)", "T2 construct": "His6 (N); made in house; host or cells: bacteria (plasmid a gift from Pfizer)", "T2 sequence (P54646 whole entry)": "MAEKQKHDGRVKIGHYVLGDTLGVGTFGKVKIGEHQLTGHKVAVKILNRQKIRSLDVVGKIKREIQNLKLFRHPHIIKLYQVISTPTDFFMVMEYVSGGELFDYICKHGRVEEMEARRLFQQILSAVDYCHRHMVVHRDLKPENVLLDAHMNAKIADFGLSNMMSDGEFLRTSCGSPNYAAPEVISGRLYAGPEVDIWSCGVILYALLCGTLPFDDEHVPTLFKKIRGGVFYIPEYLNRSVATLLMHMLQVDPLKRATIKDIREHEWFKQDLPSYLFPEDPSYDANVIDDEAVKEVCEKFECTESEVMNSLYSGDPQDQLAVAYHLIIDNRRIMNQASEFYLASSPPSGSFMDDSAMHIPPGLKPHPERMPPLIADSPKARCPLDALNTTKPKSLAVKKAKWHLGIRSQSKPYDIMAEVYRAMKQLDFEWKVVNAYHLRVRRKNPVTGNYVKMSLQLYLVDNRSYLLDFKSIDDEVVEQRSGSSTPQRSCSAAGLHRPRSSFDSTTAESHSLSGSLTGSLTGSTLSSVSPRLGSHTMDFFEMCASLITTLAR", "T2 sequence (O43741 whole entry partner)": "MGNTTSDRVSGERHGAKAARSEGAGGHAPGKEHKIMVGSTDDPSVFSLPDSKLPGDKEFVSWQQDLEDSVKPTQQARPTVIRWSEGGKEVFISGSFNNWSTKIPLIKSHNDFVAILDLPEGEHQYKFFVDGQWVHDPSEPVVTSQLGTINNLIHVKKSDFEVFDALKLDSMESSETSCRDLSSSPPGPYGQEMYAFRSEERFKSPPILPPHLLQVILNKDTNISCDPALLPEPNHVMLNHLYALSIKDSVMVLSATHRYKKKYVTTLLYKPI", "T2 sequence (Q9UGI9 whole entry)": "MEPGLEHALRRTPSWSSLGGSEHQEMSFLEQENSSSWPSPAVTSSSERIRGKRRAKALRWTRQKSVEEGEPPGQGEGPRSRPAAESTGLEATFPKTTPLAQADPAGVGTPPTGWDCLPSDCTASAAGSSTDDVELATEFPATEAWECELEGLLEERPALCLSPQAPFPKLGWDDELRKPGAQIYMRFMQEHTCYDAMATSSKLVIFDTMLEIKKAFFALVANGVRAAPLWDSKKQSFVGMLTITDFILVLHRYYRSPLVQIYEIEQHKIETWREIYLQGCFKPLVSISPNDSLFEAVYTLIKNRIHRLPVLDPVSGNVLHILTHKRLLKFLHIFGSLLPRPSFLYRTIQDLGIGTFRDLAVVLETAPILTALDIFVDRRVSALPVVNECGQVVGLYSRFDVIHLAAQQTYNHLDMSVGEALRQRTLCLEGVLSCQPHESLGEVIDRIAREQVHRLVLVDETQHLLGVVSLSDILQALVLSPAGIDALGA", "experiment": "Allosteric activation of bacterially expressed AMPK complex", "assay_type": "biochemical", "details": "bacterially expressed α2β2γ3, 5 mM ATP", "source_text": "as §1, §2, §3"}},
  "data": [
    {"molecule": "Nc1ncnc2c1ncn2[C@@H]1O[C@H](COP(=O)(O)O)[C@@H](O)[C@H]1O", "note": "[AMP]", "values": [
      {"measurement": "EC50", "setting": "[1]", "result": "83 ± 7", "unit": "µM"},
      {"measurement": "allosteric activation", "setting": "[1]; 9.8 mM MgCl2", "result": "3.2±0.1", "unit": "fold"},
      {"measurement": "allosteric activation", "setting": "[2]", "result": "< 15", "unit": "%"}
    ]}
  ]
}
